Data set [1] has as its system acutely dissociated and purified rat OPCs. Description: Acute OL differentiation assay (MBP expression/cell, immunofluorescent image quantification). In kind it is cell-based. Particulars: for activation at 2 µM / activation at 10 µM / activation at 0.4 µM: Rattus norvegicus; for activation at 0.4 µM: 0.4 uM test compound, read-out: OL differentiation, 0.4 uM (% Quet). The method in brief: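 Oligodendrocyte precursor cells were enriched from P6-P7 Sprague–Dawley rat brains by immunopanning (RAN-2 and GalC depletion, O4 selection), plated at 5000 cells/well in serum-free, mitogen-free differentiation media on PDL/laminin 96-well view plates, centrifuged at 200×g, and pre-incubated 1–2 h before test compounds were added in quadruplicate. On DIV4, cells were fixed, stained for MBP and DAPI, imaged automatically, and MBP expression per cell was quantified.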

The next data set deals with expanded OPCs. Description: cells. To be noted: for viability at 0.1 µM / viability at 1 µM / viability at 10 µM: Rattus norvegicus, 72 h. The essentials: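 Expanded OPCs seeded at 10,000 cells/well in differentiation media, then exposed to NCC library compounds at 10, 1 and 0.1 µM (quadruplicate, 0.1% DMSO) for three days. Viability read as alamarBlue fluorescence (560/590 nm) after 4 h at 37 °C; tunicamycin 5 ng/ml served as toxicity control.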

[2] abbreviates: 2 uM test compound, relative to quetiapine, sheet "All OLga data", read-out: OL differentiation, 2 uM (% Quet).
Setting [3] is: 10 uM test compound, relative to quetiapine, sheet "All OLga data", read-out: OL differentiation, 10 uM (% Quet).
The mark [4] stands for this setting: read-out: 0.1 µM (% DMSO), alamarBlue viability of expanded OPCs, compound at 0.1 µM, sheet All Tox data.
The mark [5] stands for this setting: read-out: 1 µM (% DMSO), alamarBlue viability of expanded OPCs, compound at 1 µM, sheet All Tox data.
The mark [6] stands for this setting: read-out: 10 µM (% DMSO), alamarBlue viability of expanded OPCs, compound at 10 µM, sheet All Tox data.
[7] abbreviates: test compound at 2 uM, NCC library screen, sheet "All OLga data", relative to quetiapine.
Setting [8] is: alamarBlue viability, NCC library compound at 0.1 µM, sheet "All Tox data".
Where [9] appears, read: alamarBlue viability, NCC library compound at 1 µM, sheet "All Tox data".
The mark [10] stands for this setting: alamarBlue viability, NCC library compound at 10 µM, sheet "All Tox data".
The mark [11] stands for this setting: relative to quetiapine, sheet "All OLga data".
Where [12] appears, read: alamarBlue viability of expanded OPCs, compound at 0.1 µM, relative to DMSO control.
Setting [13] is: alamarBlue viability of expanded OPCs, compound at 1 µM, relative to DMSO control.
Where [14] appears, read: alamarBlue viability of expanded OPCs, compound at 10 µM, relative to DMSO control.
The mark [15] stands for this setting: test compound at 2 uM, NCC library screen, sheet "All OLga data", relative to quetiapine, read-out: 2 uM (% Quet).
Where [16] appears, read: test compound at 10 uM, NCC library screen, sheet "All OLga data", relative to quetiapine, read-out: 10 uM (% Quet).
Where [17] appears, read: read-out: 0.1 µM (% DMSO), alamarBlue viability, NCC library compound at 0.1 µM, sheet "All Tox data".
Where [18] appears, read: read-out: 1 µM (% DMSO), alamarBlue viability, NCC library compound at 1 µM, sheet "All Tox data".
The mark [19] stands for this setting: read-out: 10 µM (% DMSO), alamarBlue viability, NCC library compound at 10 µM, sheet "All Tox data".

The results in this text go back to paper PMC5011342, “A high throughput drug screening assay to identify compounds that promote oligodendrocyte differentiation using acutely dissociated and purified oligodendrocyte precursor cells” (BMC Research Notes, 2016).

Like-named read-outs stand apart in the source and are kept apart here.

As to `Cc1cccc(C)c1NC(=O)C(C)N` (stereo not drawn) [Tocainide], the activation at 2 µM in data set [1] (setting [2]) turned out to be 1.2%. Also, the activation at 10 µM in data set [1] (setting [3]) was -23.2%. For the same molecule, the viability at 0.1 µM in the data set on expanded OPCs (setting [4]) is 94.9%. For the same molecule, the viability at 1 µM in the data set on expanded OPCs (setting [5]) turned out to be 96.2%. Also, the viability at 10 µM in the data set on expanded OPCs (setting [6]) was found to be 98%.

Take `CC(C)c1ccc2c(c1)c(SC(C)(C)C)c(CC(C)(C)C(=O)O)n2Cc1ccc(Cl)cc1` [MK 886]: in data set [1] (test compound at 0.4 uM, NCC library screen, sheet "All OLga data", relative to quetiapine), the “0.4 uM (% Quet)” value amounted to 51.1 % Quet. The “2 uM (% Quet)” value in data set [1] (setting [7]) is listed as -93.5 % Quet. Besides, in the data set with expanded OPCs (setting [8]), the “0.1 µM (% DMSO)” value turned out to be 97.3 % DMSO. Further, in the data set on expanded OPCs (setting [9]), the “1 µM (% DMSO)” value is reported as 107.0 % DMSO. The “10 µM (% DMSO)” value in the data set with expanded OPCs (setting [10]) came out at 10.8 % DMSO.

Take `CN1CCC(=C2c3ccccc3CCc3sccc32)CC1` [Pizotyline]: in data set [1] (setting [11]), the activation at 0.4 µM was -8.8%. The activation at 2 µM in data set [1] (setting [2]) is -30.6%. The viability at 0.1 µM in the data set on expanded OPCs (setting [4]) is 86.7%. For the same molecule, the viability at 1 µM in the data set on expanded OPCs (setting [5]) was determined as 65.3%. In addition, the viability at 10 µM with expanded OPCs (setting [6]) stood at 24.6%.

`CC1(C)S[C@@H]2[C@H](NC(=O)[C@H](N)c3ccccc3)C(=O)N2[C@H]1C(=O)O` [Ampicillin]: in data set [1] (test compound at 2 uM, MBP expression relative to quetiapine, NCC library screen, sheet "All OLga data", read-out: 2 uM (% Quet)), the activation at 2 µM was -10.9%. For the same molecule, in data set [1] (test compound at 10 uM, MBP expression relative to quetiapine, NCC library screen, sheet "All OLga data", read-out: 10 uM (% Quet)), the activation at 10 µM was -36.2%. For the same molecule, the “0.1 µM (% DMSO)” value in the data set on expanded OPCs (setting [12]) came out at 88.7 % DMSO. Besides, the “1 µM (% DMSO)” value in the data set with expanded OPCs (setting [13]) was found to be 94.1 % DMSO. For the same molecule, the “10 µM (% DMSO)” value in the data set with expanded OPCs (setting [14]) worked out at 94.1 % DMSO.

As to `CCCNC(=O)NS(=O)(=O)c1ccc(Cl)cc1` [Chlorpropamide], the activation at 2 µM in data set [1] (setting [15]) was -27.8%. Also, the activation at 10 µM in data set [1] (setting [16]) is -19%. The “0.1 µM (% DMSO)” value in the data set on expanded OPCs (setting [12]) came to 185.9 % DMSO. Moreover, the “1 µM (% DMSO)” value in the data set on expanded OPCs (setting [13]) was 197.2 % DMSO. Besides, the “10 µM (% DMSO)” value in the data set with expanded OPCs (setting [14]) amounted to 208.8 % DMSO.

Consider `CC(C)OC(=O)CCC/C=C\C[C@@H]1[C@@H](CC[C@@H](O)CCc2ccccc2)[C@H](O)C[C@@H]1O` [Latanoprost], for which the activation at 2 µM in data set [1] (setting [2]) is -37.3%. The activation at 10 µM in data set [1] (setting [3]) is -143%. For the same molecule, the viability at 0.1 µM in the data set with expanded OPCs (setting [4]) is 85.2%. In addition, the viability at 1 µM in the data set with expanded OPCs (setting [5]) was 91.5%. The viability at 10 µM in the data set with expanded OPCs (setting [6]) was 81.4%.

As for `N[C@@H](C(=O)N[C@@H]1C(=O)N2C(C(=O)O)=C(CSc3c[nH]nn3)CS[C@H]12)c1ccc(O)cc1` [Cefatrizine], the activation at 2 µM in data set [1] (setting [2]) turned out to be 11.1%. For the same molecule, the activation at 10 µM in data set [1] (setting [3]) was -10.4%. Further, the viability at 0.1 µM in the data set on expanded OPCs (setting [4]) came out at 99.1%. For the same molecule, in the data set on expanded OPCs (setting [5]), the viability at 1 µM is 95.1%. In the data set with expanded OPCs (setting [6]), the viability at 10 µM was 104%.

Methanesulfonamide: the “2 uM (% Quet)” value in data set [1] (setting [7]) is reported as -6.5 % Quet. Further, the “10 uM (% Quet)” value in data set [1] (test compound at 10 uM, NCC library screen, sheet "All OLga data", relative to quetiapine) came out at 5.8 % Quet. For the same molecule, in the data set on expanded OPCs (setting [8]), the “0.1 µM (% DMSO)” value is 118.1 % DMSO. Further, in the data set with expanded OPCs (setting [9]), the “1 µM (% DMSO)” value worked out at 132.7 % DMSO. For the same molecule, the “10 µM (% DMSO)” value in the data set on expanded OPCs (setting [10]) amounted to 132.9 % DMSO.

For the molecule `O=C1Nc2ccc(Cl)cc2[C@@](C#CC2CC2)(C(F)(F)F)O1` [Efavirenz], the activation at 0.4 µM in data set [1] (setting [11]) was determined as 3.8%. The activation at 2 µM in data set [1] (setting [2]) stood at 40.9%. For the same molecule, the viability at 0.1 µM with expanded OPCs (setting [17]) came out at 90.4%. The viability at 1 µM in the data set on expanded OPCs (setting [18]) stood at 85.6%. Also, in the data set with expanded OPCs (setting [19]), the viability at 10 µM stood at 16.8%.

Take `CCOC(=O)OC(C)OC1=C(C(=O)Nc2ccccn2)N(C)S(=O)(=O)c2ccccc21` (stereo not drawn) [Ampiroxicam]: the activation at 2 µM in data set [1] (setting [15]) amounted to 12.7%. In addition, the activation at 10 µM in data set [1] (setting [16]) is -2%. In addition, the viability at 0.1 µM with expanded OPCs (setting [17]) amounted to 97.8%. In addition, in the data set with expanded OPCs (setting [18]), the viability at 1 µM was 82.6%. In the data set with expanded OPCs (setting [19]), the viability at 10 µM stood at 90.8%.

In the case of `Nc1nc2ccc(Cl)cc2c2nc(-c3ccco3)nn12` [CGS 15943], in data set [1] (read-out: OL differentiation, 2 uM (% Quet)), the activation at 2 µM is -24.4%. The activation at 10 µM in data set [1] (read-out: OL differentiation, 10 uM (% Quet)) is -126%. Besides, in the data set on expanded OPCs (read-out: 0.1 µM (% DMSO)), the viability at 0.1 µM came to 81.2%. In addition, the viability at 1 µM in the data set with expanded OPCs (read-out: 1 µM (% DMSO)) turned out to be 94.8%. In addition, the viability at 10 µM in the data set with expanded OPCs (read-out: 10 µM (% DMSO)) came to 112%.

Consider `C[C@H]1[C@H](OC(=O)CCC(=O)O)O[C@@H]2O[C@@]3(C)CC[C@H]4[C@H](C)CC[C@@H]1[C@@]24OO3` [Artesunate], for which, in data set [1] (setting [2]), the activation at 2 µM is -39.6%. For the same molecule, in data set [1] (setting [3]), the activation at 10 µM is -122%. For the same molecule, the viability at 0.1 µM in the data set with expanded OPCs (setting [4]) turned out to be 93.2%. The viability at 1 µM in the data set with expanded OPCs (setting [5]) amounted to 101%. Further, in the data set on expanded OPCs (setting [6]), the viability at 10 µM amounted to 74%.
